According to ChEMBL document CHEMBL5614421, “Structure-activity relationship study of Pseudellone C as anti-glioma agents by targeting TNF/TNFR signaling pathway” (Eur J Med Chem, 2024):

Key:
[1] = Drug concentration in C57BL/6J mouse brain at 9 mg/kg,iv administration measured after 15 mins by LC-MS analysis; format: ADME, organism-based; conditions: read-out: Ct
LN-229 [2] = assay: Induction of apoptosis in human LN-229 cells assessed as late apoptotic cells at 10 uM incubated for 24 hrs by Annexin V-APC/7-AAD staining based flow cytometric analysis (reference value: 3.56 %); format: functional
U-87 MG [3] = assay: Induction of apoptosis in human U-87 MG cells assessed as early apoptotic cells at 20 uM incubated for 48 hrs by Annexin V-APC/7-AAD staining based flow cytometric analysis (reference value: 0.94 %); format: functional, U-87MG ATCC
U-87 MG [4] = assay: Induction of apoptosis in human U-87 MG cells assessed as early apoptotic cells at 20 uM incubated for 24 hrs by Annexin V-APC/7-AAD staining based flow cytometric analysis (reference value: 0.94 %); format: functional, U-87MG ATCC
U-87 MG [5] = assay: Induction of apoptosis in human U-87 MG cells at 20 uM incubated for 24 hrs by Annexin V-APC/7-AAD staining based flow cytometric analysis (reference value: 5.67 +/- 1.49 %); format: functional, U-87MG ATCC
U-87 MG [6] = assay: Induction of apoptosis in human U-87 MG cells assessed as viable cells at 10 uM incubated for 24 hrs by Annexin V-APC/7-AAD staining based flow cytometric analysis (reference value: 94 %); format: functional, U-87MG ATCC; conditions: read-out: Activity
U-87 MG [7] = assay: Induction of apoptosis in human U-87 MG cells assessed as late apoptotic cells at 10 uM incubated for 24 hrs by Annexin V-APC/7-AAD staining based flow cytometric analysis (reference value: 4.22 %); format: functional, U-87MG ATCC
LN-229 [8] = assay: Induction of apoptosis in human LN-229 cells assessed as early apoptotic cells at 10 uM incubated for 24 hrs by Annexin V-APC/7-AAD staining based flow cytometric analysis (reference value: 0.45 %); format: functional
U-87 MG [9] = assay: Induction of apoptosis in human U-87 MG cells assessed as necrotic cells at 20 uM incubated for 24 hrs in presence of R7050 by Annexin V-APC/7-AAD staining based flow cytometric analysis (reference value: 3.85 %); format: functional, U-87MG ATCC
LN-229 [10] = assay: Induction of apoptosis in human LN-229 cells at 20 uM incubated for 24 hrs by Annexin V-APC/7-AAD staining based flow cytometric analysis relative to control; format: functional
LN-229 [11] = assay: Induction of apoptosis in human LN-229 cells assessed as viable cells at 20 uM incubated for 24 hrs by Annexin V-APC/7-AAD staining based flow cytometric analysis (reference value: 91.7 %); format: functional; conditions: read-out: Activity
U-87 MG [12] = assay: Induction of apoptosis in human U-87 MG cells assessed as viable cells at 20 uM incubated for 24 hrs in presence of R7050 by Annexin V-APC/7-AAD staining based flow cytometric analysis (reference value: 85 %); format: functional, U-87MG ATCC; conditions: read-out: Activity
LN-229 [13] = assay: Induction of apoptosis in human LN-229 cells assessed as late apoptotic cells at 20 uM incubated for 24 hrs by Annexin V-APC/7-AAD staining based flow cytometric analysis (reference value: 5.1 %); format: functional
LN-229 [14] = assay: Induction of apoptosis in human LN-229 cells assessed as early apoptotic cells at 20 uM incubated for 24 hrs in presence of R7050 by Annexin V-APC/7-AAD staining based flow cytometric analysis (reference value: 0.91 %); format: functional
LN-229 [15] = assay: Induction of apoptosis in human LN-229 cells assessed as late apoptotic cells at 5 uM incubated for 24 hrs by Annexin V-APC/7-AAD staining based flow cytometric analysis (reference value: 3.56 %); format: functional
LN-229 [16] = assay: Induction of apoptosis in human LN-229 cells assessed as necrotic cells at 20 uM incubated for 12 hrs by Annexin V-APC/7-AAD staining based flow cytometric analysis (reference value: 0.7 %); format: functional
U-87 MG [17] = assay: Induction of apoptosis in human U-87 MG cells assessed as viable cells at 20 uM incubated for 24 hrs by Annexin V-APC/7-AAD staining based flow cytometric analysis (reference value: 85 %); format: functional, U-87MG ATCC; conditions: read-out: Activity
U-87 MG [18] = assay: Induction of apoptosis in human U-87 MG cells assessed as early apoptotic cells at 20 uM incubated for 24 hrs by Annexin V-APC/7-AAD staining based flow cytometric analysis (reference value: 3.44 %); format: functional, U-87MG ATCC
LN-229 [19] = assay: Induction of apoptosis in human LN-229 cells assessed as early apoptotic cells at 20 uM incubated for 48 hrs by Annexin V-APC/7-AAD staining based flow cytometric analysis (reference value: 2.46 %); format: functional
U-87 MG [20] = assay: Induction of apoptosis in human U-87 MG cells assessed as necrotic cells at 20 uM incubated for 24 hrs by Annexin V-APC/7-AAD staining based flow cytometric analysis (reference value: 1 %); format: functional, U-87MG ATCC
U-87 MG [21] = assay: Induction of apoptosis in human U-87 MG cells at 20 uM incubated for 24 hrs by Annexin V-APC/7-AAD staining based flow cytometric analysis relative to control; format: functional, U-87MG ATCC
U-87 MG [22] = assay: Induction of apoptosis in human U-87 MG cells assessed as late apoptotic cells at 20 uM incubated for 48 hrs by Annexin V-APC/7-AAD staining based flow cytometric analysis (reference value: 3.44 %); format: functional, U-87MG ATCC
U-87 MG [23] = assay: Induction of apoptosis in human U-87 MG cells assessed as viable cells at 5 uM incubated for 24 hrs by Annexin V-APC/7-AAD staining based flow cytometric analysis (reference value: 94 %); format: functional, U-87MG ATCC; conditions: read-out: Activity
LN-229 [24] = assay: Induction of apoptosis in human LN-229 cells assessed as viable cells at 20 uM incubated for 24 hrs in presence of R7050 by Annexin V-APC/7-AAD staining based flow cytometric analysis (reference value: 92.3 %); format: functional; conditions: read-out: Activity
LN-229 [25] = assay: Induction of apoptosis in human LN-229 cells assessed as late apoptotic cells at 20 uM incubated for 12 hrs by Annexin V-APC/7-AAD staining based flow cytometric analysis (reference value: 5.1 %); format: functional
LN-229 [26] = assay: Induction of apoptosis in human LN-229 cells assessed as early apoptotic cells at 5 uM incubated for 24 hrs by Annexin V-APC/7-AAD staining based flow cytometric analysis (reference value: 0.45 %); format: functional
LN-229 [27] = assay: Induction of apoptosis in human LN-229 cells assessed as viable cells at 20 uM incubated for 24 hrs by Annexin V-APC/7-AAD staining based flow cytometric analysis (reference value: 95.4 %); format: functional; conditions: read-out: Activity
U-87 MG [28] = assay: Induction of apoptosis in human U-87 MG cells assessed as necrotic cells at 5 uM incubated for 24 hrs by Annexin V-APC/7-AAD staining based flow cytometric analysis (reference value: 0.21 %); format: functional, U-87MG ATCC
LN-229 [29] = assay: Induction of apoptosis in human LN-229 cells assessed as early apoptotic cells at 20 uM incubated for 12 hrs by Annexin V-APC/7-AAD staining based flow cytometric analysis (reference value: 2.46 %); format: functional
U-87 MG [30] = assay: Induction of apoptosis in human U-87 MG cells assessed as viable cells at 20 uM incubated for 48 hrs by Annexin V-APC/7-AAD staining based flow cytometric analysis (reference value: 94.6 %); format: functional, U-87MG ATCC; conditions: read-out: Activity
U-87 MG [31] = assay: Induction of apoptosis in human U-87 MG cells assessed as late apoptotic cells at 20 uM incubated for 24 hrs in presence of R7050 by Annexin V-APC/7-AAD staining based flow cytometric analysis (reference value: 7.7 %); format: functional, U-87MG ATCC

Compound: CCCCCCCNC(=O)[C@H](Cc1c[nH]c2ccccc12)NC(=O)C(C)(c1c[nH]c2ccccc12)c1c[nH]c2ccccc12
- concentration at 0.25 h [1]: 91 ng/g
- Activity (LN-229 [2]): 6.38%
- Activity (U-87 MG [3]): 5.06%
- Activity (U-87 MG [4]): 2.6%
- Activity (U-87 MG [5]): 13.95%
- viability at 10 µM (U-87 MG [6]): 89.2%
- Activity (U-87 MG [7]): 6.16%
- Activity (LN-229 [8]): 3.58%
- Activity (U-87 MG [9]): 0.86%
- Activity (LN-229 [10]): 31.44%
- viability at 20 µM (LN-229 [11]): 81.7%
- viability at 20 µM (U-87 MG [12]): 87.6%
- Activity (LN-229 [13]): 4.38%
- Activity (LN-229 [14]): 1.48%
- Activity (LN-229 [15]): 3.7%
- Activity (LN-229 [16]): 1.45%
- viability at 20 µM (U-87 MG [17]): 65.1%
- Activity (U-87 MG [18]): 16.8%
- Activity (LN-229 [19]): 18.5%
- Activity (U-87 MG [20]): 1.37%
- Activity (U-87 MG [21]): 24.89%
- Activity (U-87 MG [22]): 11.6%
- viability at 5 µM (U-87 MG [23]): 92.9%
- viability at 20 µM (LN-229 [24]): 91.4%
- Activity (LN-229 [25]): 4.06%
- Activity (LN-229 [26]): 0.82%
- viability at 20 µM (LN-229 [27]): 79.8%
- Activity (U-87 MG [28]): 0.14%
- Activity (LN-229 [29]): 1.76%
- viability at 20 µM (U-87 MG [30]): 78.7%
- Activity (U-87 MG [31]): 2.87%
